Experimental data from patent US12024521B2, “Isoquinoline derivatives, methods of synthesis and uses thereof” (priority 2020, dated 2024).

System: HIV-1 (NL4-3 RLuc reporter virus in MT-2 cells)
Experiment: Inhibition of HIV-1 replication, MT-2 spreading infection assay
Format: cell-based
Conditions: Human immunodeficiency virus 1, NL43, MT2, 96 h, read-out: HIV activity (μM)
Description: Inhibition of HIV-1 viral replication was assayed in a spreading infection using MT-2 cells and NL4-3 RLuc reporter virus. For dose-response curves, compounds were initially diluted with DMSO to 100-fold the starting concentration in a 96-well plate and subjected to a series of 3-fold dilutions in DMSO for a total of eight or nine dilutions. If a single compound concentration was tested, the compound was diluted to 100-fold the desired concentration in DMSO. Compounds were then diluted 50-fold with infection media prepared by diluting NL4-3 RLuc virus stock to 400 IU/100 ul with complete RPMI. Then, 100 ul of 50-fold-diluted compound was transferred to 20,000 MT-2 cells that were preceded in 96-well plates in 100 ul of complete RPMI for a final volume of 200 ul, followed by incubation at 37° C. for 96 h. The final MOI in infected plates was 0.02, and the final DMSO concentration in all wells was 1%. All assays were run with three replicates. For each replicate, one well received DMSO only, and one well received medium only for normalization and background correction. […] Plates were read on a luminescence plate reader (Synergy H1; BioTek Instruments, Inc.).

Question: `COc1cc2c(c(OC)c1OCc1ccccc1)CCNC2/C=C/c1cc2c(cc1C)OCO2` (stereo not drawn) [Compound 6, 6-benzyloxy-5,7-dimethoxy-1-[(E)-2-(6-methyl-1,3-benzodioxol-5-yl)vinyl]-1,2,3,4-tetrahydroisoquinoline] was tested. Which IC50 did it give?
Answer: 0.37 µM

Question: How did the IC50 turn out when `COc1cc2c(cc1OCc1ccccc1)CCN(O)C2/C=C/c1cc2c(cc1C)OCO2` (stereo not drawn) [Compound 36, 6-benzyloxy-2-hydroxy-7-methoxy-1-[(E)-2-(6-methyl-1,3-benzodioxol-5-yl)vinyl]-3,4-dihydro-1H-isoquinoline] was run?
Answer: 0.053 µM

Question: `COc1cc2c(cc1OCc1ccccc1)C(C)CNC2/C=C/c1cc2c(cc1C)OCO2` (stereo not drawn) [Compound 12, 6-Benzyloxy-7-methoxy-4-methyl-1-[(E)-2-(6-methyl-1,3-benzodioxol-5-yl)vinyl]-1,2,3,4-tetrahydroisoquinoline] was tested. Which IC50 did it give?
Answer: 1.4 µM

Question: Which IC50 does the source give for `COc1c(OCc2ccccc2)cc2c(c1OC)C(/C=C/c1cc3c(cc1C)OCO3)NCC2` (stereo not drawn) [Compound 10, 6-benzyloxy-7,8-dimethoxy-1-[(E)-2-(6-methyl-1,3-benzodioxol-5-yl)vinyl]-1,2,3,4-tetrahydroisoquinoline] here?
Answer: 2.5 µM

Question: Which IC50 does the source give for `CCC1Cc2cc(OCc3ccccc3)c(OC)cc2C(/C=C/c2cc3c(cc2C)OCO3)N1` (stereo not drawn) [Compound 24, 6-Benzyloxy-7-methoxy-3-ethyl-1-[(E)-2-(6-methyl-1,3-benzodioxol-5-yl)vinyl]-1,2,3,4-tetrahydroisoquinoline] here?
Answer: 0.5 µM

Question: How did the IC50 turn out when `COc1cc2c(cc1OCc1ccccc1)C(Cl)CNC2/C=C/c1cc2c(cc1C)OCO2` (stereo not drawn) [Compound 61] was run?
Answer: 2.5 µM
